Measured values reported in ChEMBL document CHEMBL1134950, “Retro-binding thrombin active site inhibitors: identification of an orally active inhibitor of thrombin catalytic activity” (Bioorg Med Chem Lett, 2002).
Values belong to the compound of their own block, whether it stands above or below them.

Key:
[1] = biological target: T1, Prothrombin (Homo sapiens, UniProt P00734); experiment: Concentration required to inhibit Human alpha-thrombin was determined
[2] = biological target: T1, Prothrombin; experiment: Concentration required to inhibit thrombin was determined
[3] = biological target: T2, Serine protease 1 (Bos taurus, UniProt P00760); experiment: Concentration required to inhibit Trypsin was determined
T2 sequence (P00760 whole entry): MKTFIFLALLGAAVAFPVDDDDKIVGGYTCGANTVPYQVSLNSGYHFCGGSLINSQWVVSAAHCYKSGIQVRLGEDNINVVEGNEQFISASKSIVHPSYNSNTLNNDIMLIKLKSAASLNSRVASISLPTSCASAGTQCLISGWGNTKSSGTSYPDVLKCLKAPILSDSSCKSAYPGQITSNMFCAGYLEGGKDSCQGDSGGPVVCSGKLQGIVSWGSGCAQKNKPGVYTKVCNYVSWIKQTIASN

[4] = system: Mus musculus; experiment: Efficacy required to inhibit thrombin was determined after 1 hr of oral administration in the mouse thrombin challenge model; type: functional
[5] = system: Mus musculus; experiment: Efficacy required to inhibit thrombin was determined after 10 min of intravenous administration in the mouse thrombin challenge model; type: functional
[6] = biological target: Coagulation factor X (Homo sapiens, UniProt P00742); experiment: Concentration required to inhibit Coagulation factor X was determined
Coagulation factor X, sequence (P00742 41-179 limits assumed): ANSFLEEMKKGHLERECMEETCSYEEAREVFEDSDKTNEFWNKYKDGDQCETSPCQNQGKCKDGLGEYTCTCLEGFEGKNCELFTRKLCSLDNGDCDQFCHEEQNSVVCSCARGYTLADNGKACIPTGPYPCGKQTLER
Coagulation factor X, sequence (P00742 235-488 limits assumed): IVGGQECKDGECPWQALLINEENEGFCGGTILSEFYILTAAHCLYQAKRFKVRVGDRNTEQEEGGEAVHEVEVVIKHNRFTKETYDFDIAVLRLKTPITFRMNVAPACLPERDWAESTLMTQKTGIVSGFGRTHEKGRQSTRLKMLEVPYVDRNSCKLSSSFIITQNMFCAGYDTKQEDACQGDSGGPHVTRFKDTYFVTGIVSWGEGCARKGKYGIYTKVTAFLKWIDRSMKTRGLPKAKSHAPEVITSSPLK

[7] = system: Mus musculus; experiment: Efficacy required to inhibit thrombin was determined after 1 hr of intravenous administration in the mouse thrombin challenge model; type: functional
[8] = biological target: Plasminogen (Homo sapiens, UniProt P00747); experiment: Concentration required to inhibit Plasmin was determined
Plasminogen, sequence (P00747 97-580 limits assumed): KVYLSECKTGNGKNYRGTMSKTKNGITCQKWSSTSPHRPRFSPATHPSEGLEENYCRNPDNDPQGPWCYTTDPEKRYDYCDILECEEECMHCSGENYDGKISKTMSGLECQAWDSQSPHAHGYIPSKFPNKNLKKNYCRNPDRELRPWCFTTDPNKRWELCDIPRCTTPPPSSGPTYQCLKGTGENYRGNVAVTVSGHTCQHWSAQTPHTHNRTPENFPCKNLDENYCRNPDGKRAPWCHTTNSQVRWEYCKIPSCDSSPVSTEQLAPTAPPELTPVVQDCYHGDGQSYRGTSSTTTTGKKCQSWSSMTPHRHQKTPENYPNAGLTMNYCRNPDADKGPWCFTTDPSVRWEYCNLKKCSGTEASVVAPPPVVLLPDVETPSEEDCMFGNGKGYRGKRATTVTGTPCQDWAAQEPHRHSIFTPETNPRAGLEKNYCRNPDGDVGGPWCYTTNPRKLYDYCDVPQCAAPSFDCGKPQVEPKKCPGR
Plasminogen, sequence (P00747 581-810 limits assumed): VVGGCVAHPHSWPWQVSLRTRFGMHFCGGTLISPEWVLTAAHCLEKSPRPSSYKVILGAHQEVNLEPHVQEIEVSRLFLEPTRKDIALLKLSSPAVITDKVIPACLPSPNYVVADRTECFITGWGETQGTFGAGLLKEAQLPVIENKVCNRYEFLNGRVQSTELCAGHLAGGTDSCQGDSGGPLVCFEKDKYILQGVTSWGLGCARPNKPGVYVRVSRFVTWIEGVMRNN

[9] = biological target: T3, Tissue-type plasminogen activator (Homo sapiens, UniProt P00750); experiment: Concentration required to inhibit tissue-type plasminogen activator (t-PA) was determined
T3 sequence (P00750 whole entry): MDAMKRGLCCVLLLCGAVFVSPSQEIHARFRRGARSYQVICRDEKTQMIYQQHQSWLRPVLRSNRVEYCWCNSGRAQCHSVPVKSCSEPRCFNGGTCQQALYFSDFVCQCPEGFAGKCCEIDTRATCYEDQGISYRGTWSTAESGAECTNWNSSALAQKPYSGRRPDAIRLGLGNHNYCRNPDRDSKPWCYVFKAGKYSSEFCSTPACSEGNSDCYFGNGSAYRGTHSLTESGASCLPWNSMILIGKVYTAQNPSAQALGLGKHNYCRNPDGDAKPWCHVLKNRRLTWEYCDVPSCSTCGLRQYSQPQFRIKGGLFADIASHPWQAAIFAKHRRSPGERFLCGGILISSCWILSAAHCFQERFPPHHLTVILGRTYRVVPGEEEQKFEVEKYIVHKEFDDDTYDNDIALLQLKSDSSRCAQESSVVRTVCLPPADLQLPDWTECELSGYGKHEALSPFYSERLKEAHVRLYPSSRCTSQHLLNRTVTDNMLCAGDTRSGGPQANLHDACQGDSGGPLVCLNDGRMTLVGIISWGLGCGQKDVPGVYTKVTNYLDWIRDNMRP

[10] = biological target: T1, Prothrombin; experiment: Inhibitory constant of thrombin catalytic activity was determined
[11] = biological target: T3, Tissue-type plasminogen activator; experiment: Concentration required to inhibit Tissue-type plasminogen activator (t-PA) was determined

SMILES: COC(=O)[C@@H](NC(=O)[C@@H](NC(=O)[C@H](Cc1ccc([N+](=O)[O-])cc1)NC(=O)CCCN=C(N)N)C(C)O)C1CCCCC1 (some centres not stated)
IC50 [1]: 16 nM

SMILES: CC(O)[C@@H](C(=O)N[C@H](C)c1ccccc1)N(C)C(=O)[C@H](Cc1ccc([N+](=O)[O-])cc1)NC(=O)CCCN=C(N)N (some centres not stated)
IC50 [2]: 8 nM
IC50 [3]: 8 nM
ED50 [4]: 23 mg/kg
ED50 [5]: 0.21 mg/kg
IC50 [6]: 4600 nM
ED50 [7]: 2.2 mg/kg
IC50 [8]: 230 nM
IC50 [9]: 700 nM

SMILES: CC(O)[C@H](NC(=O)[C@H](Cc1ccc([N+](=O)[O-])cc1)NC(=O)CCCN=C(N)N)C(=O)N[C@@H](C)Cc1ccccc1 (some centres not stated)
IC50 [1]: 260 nM

SMILES: CN[C@H](Cc1ccccc1)C(=O)N1CCC[C@H]1C(=O)N[C@H](C=O)CCCNC(=N)N [EFEGATRAN]
IC50 [2]: 30 nM
IC50 [3]: 45 nM
ED50 [4]: 44 mg/kg
Ki [10]: 7 nM
ED50 [5]: 0.04 mg/kg
IC50 [6]: 16000 nM
IC50 [11]: 34000 nM
ED50 [7]: 3 mg/kg
IC50 [8]: 25000 nM

SMILES: CC(O)[C@H](NC(=O)[C@H](Cc1ccc([N+](=O)[O-])cc1)NC(=O)CCCN=C(N)N)C(N)=O (some centres not stated)
IC50 [1]: 230000 nM

SMILES: CC(O)[C@H](NC(=O)[C@H](Cc1ccc([N+](=O)[O-])cc1)NC(=O)CCCN=C(N)N)C(=O)N[C@@H](C)c1ccccc1 (some centres not stated)
IC50 [1]: 310 nM

More lines, in order of falling IC50 [1], values ahead:

IC50 [1]: 72 nM
SMILES: CC(O)[C@H](NC(=O)[C@H](Cc1ccc([N+](=O)[O-])cc1)NC(=O)CCCN=C(N)N)C(=O)N[C@H](C)c1ccccc1 (some centres not stated)

IC50 [1]: 55 nM
SMILES: CC(O)[C@H](NC(=O)[C@H](Cc1ccc([N+](=O)[O-])cc1)NC(=O)CCCN=C(N)N)C(=O)N[C@H](C(=O)O)C1CCCCC1 (some centres not stated)

IC50 [1]: 43 nM
SMILES: CC(O)[C@H](NC(=O)[C@H](Cc1ccc([N+](=O)[O-])cc1)NC(=O)CCCN=C(N)N)C(=O)N[C@H](C)Cc1ccccc1 (some centres not stated)

IC50 [1]: 19 nM
SMILES: CC(O)[C@H](NC(=O)[C@H](Cc1ccc([N+](=O)[O-])cc1)NC(=O)CCCN=C(N)N)C(=O)N[C@H](CO)c1ccccc1 (some centres not stated)

IC50 [1]: 19 nM
SMILES: CC(O)[C@H](NC(=O)[C@H](Cc1ccc([N+](=O)[O-])cc1)NC(=O)CCCN=C(N)N)C(=O)N[C@H](CO)C1CCCCC1 (some centres not stated)

IC50 [1]: 8.3 nM
SMILES: COC(=O)[C@@H](NC(=O)[C@@H](NC(=O)[C@H](Cc1ccc([N+](=O)[O-])cc1)NC(=O)CCCN=C(N)N)C(C)O)c1ccccc1 (some centres not stated)
